# Assay results reported in patent publication US20100035311A1, “METHOD AND COMPOSITION FOR ENZYME STORAGE” (priority 2006, published 2010).
# Read-outs that look alike come from different tables or passages of the source.
# Key:
# CYP74C3 [1] = assay type: biochemical, Medicago truncatula
# Procedure: Protein content was estimated using the Bradford or bicinchoninic acid (BCA) assay (Pierce, Perbio Science, Cramlington, Northumberland, U.K.) according to the manufacturer's instructions. Bovine serum albumin was used as a standard. […] Substrate specificity was determined by comparing kcat/Km.
# CYP74C3 [2] = tested on: CYP74C3
# Procedure: (a) UV/Visible spectra of ligand-bound forms of oxidised native CYP74C3 (2 μM, ? ); KCN (100 mM, ——); imidazole (50 mM, ---------); DMPhP (250 mM, —[…] […]—). The spectrum of dithionite (50 mM) reduced CYP74C3 (2 μM) before ([…]) and after (—[…]—) reaction with CO (˜1 mM) are also shown. […] (c) Stopped-flow diode array spectral changes over a period of 200 s for cyanide (100 mM) binding to native oxidised CYP74C3 (2 μM).
# Spectra and steady-state kinetic analyses were performed using a dual beam scanning Shimadzu UV/Visible spectrophotometer (Model UV-1601, Shimadzu, Milton Keynes, U.K.). […] Stopped flow-UV/Visible data were analysed with the KineticAsyst 3.0 software package (Hi-Tech Scientific). Ligand-binding studies were carried out with both the native oxidised and the dithionite ion reduced forms of CYP74C3.
# AOS = settings: ref [23′]; cited from earlier work
# CYP74A1 = biological target: T1, CYP74A1 (Arabidopsis thaliana, UniProt Q96242)
# T1 sequence (Q96242 with tags, fused parts or gaps): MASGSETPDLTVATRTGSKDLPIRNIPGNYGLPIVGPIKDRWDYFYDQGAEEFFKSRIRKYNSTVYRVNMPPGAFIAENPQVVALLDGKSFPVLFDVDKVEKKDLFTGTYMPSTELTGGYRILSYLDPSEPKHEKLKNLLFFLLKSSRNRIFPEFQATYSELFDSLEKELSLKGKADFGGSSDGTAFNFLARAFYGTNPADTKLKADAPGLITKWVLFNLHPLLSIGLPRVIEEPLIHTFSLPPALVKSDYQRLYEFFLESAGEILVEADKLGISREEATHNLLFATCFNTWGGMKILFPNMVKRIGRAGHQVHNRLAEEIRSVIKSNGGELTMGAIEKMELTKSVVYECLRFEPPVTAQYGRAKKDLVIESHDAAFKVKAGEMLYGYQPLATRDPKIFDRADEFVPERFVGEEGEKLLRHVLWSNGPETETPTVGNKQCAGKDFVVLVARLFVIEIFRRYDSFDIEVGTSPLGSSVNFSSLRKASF
# [3] = tested on: Medicago truncatula hydroperoxide lyase CYP74C3 (HPLF), recombinant, wild type, N-terminal histidine-tagged; settings: for Km / kcat: pH 6.5, 25° C.
# CYP74C3 [4] = settings: cited from earlier work
# [5] = +Detergent (purified in detergent-buffer)
# [6] = Reactivated with 5 mM Emulphogene
# [7] = detergent-buffer vs detergent-free
# [8] = monomer-micelle complex vs detergent-free monomer
structure (smiles),measurement,setting,value
"c1c[nH]cn1 [Imidazole, imidazole]",activity of CYP74C3 after elution from IMAC with the ligand,CYP74C3 [1],virtually inactive enzyme
same,binding of ligand to CYP74C3,CYP74C3 [2],shown to bind
same,k1 of biphasic ligand binding,CYP74C3 [2]; pH 6.5,2.5±0.1×10^−2 s^−1
same,k2 of biphasic ligand binding,CYP74C3 [2]; pH 6.5,0.33±0.03×10^−2 s^−1
same,inhibition of AOS,AOS,potent inhibitor
"CC/C=C\C[C@@H](/C=C/C=C\CCCCCCCC(=O)O)OO [13α-HPOT, 13-S-hydroperoxy-9Z,11E,15Z-octadecatrienoic acid]",fold increase in kcat/Km after reactivation with detergent micelles,CYP74A1,~50 fold
same,"Substrate specificity (% 13α-HPOT), from kcat/Km",[3]; [5],100%
same,kcat/Km,[3]; [5],1.558e+08 M⁻¹ s⁻¹
same,Km,[3]; [5],3.3 µM
same,kcat,[3]; [5],514 ± 11 s⁻¹
same,"Substrate specificity (% 13α-HPOT), from kcat/Km",[3]; Detergent-free,100%
same,kcat/Km,[3]; Detergent-free,3.2e+06 M⁻¹ s⁻¹
same,Km,[3]; Detergent-free,20.9 ± 1.7 µM
same,kcat,[3]; Detergent-free,68 ± 5 s⁻¹
same,"Substrate specificity (% 13α-HPOT), from kcat/Km",[3]; [6],100%
same,kcat/Km,[3]; [6],1.493e+08 M⁻¹ s⁻¹
same,Km,[3]; [6],4.4 ± 0.6 µM
same,"Km / affinity, fold change on detergent removal (Km higher)",[3]; [7],6 fold
same,"kcat, fold difference (detergent-buffer higher than detergent-free)",[3]; [7],approximately 8 fold
same,catalytic efficiency (kcat/Km) of detergent-free enzyme as % of enzyme purified without detergent removal,[3]; detergent-free vs detergent-buffer,2%
same,"CYP74C3, fold faster than CYP74A1 (kcat/Km)","[3]; in detergent micelles, CYP74C3 vs CYP74A1",2.6 fold
same,fold increase in kcat/Km upon micelle binding,[3]; micelle-bound vs detergent-free,~50 fold
same,"Km of monomer-micelle complex, fold lower than detergent-free monomer",[3]; [8],5-6 fold
same,"kcat of monomer-micelle complex, fold higher than detergent-free monomer",[3]; [8],8-10 fold
same,kcat/Km,[3]; with detergent,up to 1.6×10^8 M^−1. s^−1
same,fold increase in kcat/Km upon micelle binding,CYP74C3 [4],~50 fold
